Values after ≈ are worked out from the molar mass of the structure shown. Values joined by “and” are separate entries in the source; they are usually repeats but may differ in a detail not shown here. Equal values may be shown once.
Experiments:
[1] = biological target: human CGAS (157-522) (Homo sapiens, UniProt Q8N884); assay: biochemical;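 further: biochemical enzyme reaction, 2′3′-cGAMP product measured by RapidFire mass spectrometry (MRM) normalised to c-di-UMP internal standard, inhibition of product formation relative to high and low control wells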
Sequence of human CGAS (157-522) (Q8N884 157-522): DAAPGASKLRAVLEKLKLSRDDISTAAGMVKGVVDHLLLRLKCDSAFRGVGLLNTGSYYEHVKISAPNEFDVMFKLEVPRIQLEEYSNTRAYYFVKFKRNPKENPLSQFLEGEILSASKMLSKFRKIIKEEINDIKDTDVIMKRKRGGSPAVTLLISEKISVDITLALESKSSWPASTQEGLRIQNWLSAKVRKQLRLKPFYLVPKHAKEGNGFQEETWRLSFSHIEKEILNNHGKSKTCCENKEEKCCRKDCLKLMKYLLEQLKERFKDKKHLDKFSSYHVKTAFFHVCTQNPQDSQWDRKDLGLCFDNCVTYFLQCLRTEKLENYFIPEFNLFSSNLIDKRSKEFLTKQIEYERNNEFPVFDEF
Method: Compounds were serially diluted 2, 3, or 4-fold in neat DMSO to generate 11-point dose response curves and then 250 nL compound or DMSO solution was transferred to Greiner 384-well V-bottom assay plates (Catalog #781280) using an Echo acoustic dispenser (Labcyte). A solution of 150 μM ATP, 150 μM GTP, 20 μM pppGpA (GTP-2′5′-AMP, custom synthesis from ChemGenes), and 10 μg/mL sheared salmon sperm DNA (Sigma, Catalog #D1626) in assay buffer (20 mM Trizma, pH 7.5, 10 mM magnesium chloride, 0.3 mM CHAPS, and 0.01% (w/v) bovine serum albumin) was added to columns 1-17, 19-24 of the plate at 12.5 μL/well using a Combi liquid handler (ThermoFisher). A 12.5 μL/well low control solution containing 150 μM ATP, 150 μM GTP, 20 μM pppGpA in assay buffer was added to column 18 using the Combi. A 12.5 μL/well solution of 10-100 nM human CGAS (157-522) in assay buffer was then added to all wells of the plate using the Combi. […] Reactions were quenched by added 50 μL/well of 0.5% (v/v) trifluoroacetic acid (TFA) in mass spectrometry grade deionized water containing 5 μM cyclic-di-UMP (ci-di-UMP; Invivogen Catalog #tlrl-cdu) as the internal standard (IS). Plates were centrifuged for 1 min and then quenched reactions were analyzed using a RF-MS 300 system operating in a Multiple Reaction Monitoring (MRM) detection mode.
Samples (10 μL injection volume) were passed over a silica C18/type C solid phase extraction (SPE) cartridge for analyte (2′3′-cyclic guanosine monophosphate adenosine monophosphate (2′3′-cGAMP), product of biochemical reaction)/pppGpA/c-di-UMP IS adsorption. Adsorbed samples were desalted for 3000 ms using a 100% water eluent A/desalting solution. Afterwards, desalted samples were eluted using a 0.5% TFA in 20%/80% acetonitrile/water eluent B/elution solution directly into either a Sciex 4000, 5000 or 5500 triple quadrupole mass spectrometer (QQQ-MS) for MRM analyte/IS detection. QQQ-MS detection conditions were as follow: scan type: MRM; curtain (CUR) gas: 30 psi; nebulizer (GS1) gas: 50 psi; drying (GS2) gas: 60 psi; collisionally activated dissociation (CAD) gas: 12 relative setting; precursor ion (Q1) masses: 2′3′-cGAMP: m/z 675.1 Da/pppGpA: m/z 853.0 Da/c-di-UMP: m/z 613.1 Da; fragment ion (Q3) masses: 2′3′-cGAMP: m/z 524.1 Da/pppGpA: m/z 702.0 Da/c-di-UMP: 307.1 Da; declustering potentials (DPs): 2′3′-cGAMP: +81 V/pppGpA: +85 V/c-di-UMP: +85 V; entrance potential: +10 V (all analytes); collision energies (CEs): 2′3′-cGAMP: +33 V/pppGpA: +36 V/c-di-UMP: +35 V; collision cell exit potential (CXP): +10 V (all analytes); interface heater (Sciex 4000/5000 only): on; Q1 resolution: unit (all analyte); Q3 resolution: unit (all analytes). The area under the curve (AUC) for all analytes was obtained using the RapidFire Integrator software application to calculate AUC-2′3′-cGAMP/AUC-c-di-UMP intensity ratio. Percent product formation was calculated by comparison to column 6 (high control)/column 18 (low control) responses. The % product inhibition was calculated as follows:
[formula] where A is the minimum response, B is the maximum response, C is the log10*XC50, D is the slope factor, and x is the log10 compound concentration [M] in ABASE XE.

[2] = test system: cGAS pathway; assay: Whole blood (hWB) cytokine release assay (96-well, Bacmam stimulation, plasma IP-10 by Meso-Scale Discovery plates); assay type: cell-based; settings: Table 4, human whole blood from individual healthy donors, 6 h; for IC50: Homo sapiens, read-out: hWB pXC50 (converted)
Method: The whole blood (hWB) cytokine release assay was performed as follows.
Human whole blood was collected from individual healthy donors into a 60 ml syringe containing sodium heparin (5 ml sodium heparin per syringe; Cat #309653, Becton-Dickinson, NJ, US). In a biosafety cabinet, 140 ul of the collected blood was transferred to each well of a 96-well flat bottom plate (Cat #167008, VWR, PA, US). The DMSO stock solution of small molecule cGAS inhibitor (10 mM stock solution) was diluted in PBS to prepare 10× solutions (3-fold dilutions) and 20 ul of the prepared 10× solutions was added to appropriate wells. Plates were shaken for 5 minutes at room temperature then incubated at 37° C. for 30 minutes. The stock solution of purified Bacmam was diluted with PBS+0.1% BSA to prepare a 4% (v/v) solution (10×). To activate the cGAS pathway, 20 uL of Bacmam was added to the blood, and the plates were shaken for 10 minutes at room temperature. PBS was added to achieve a final volume of 200 ul. Plates were then incubated at 37° C. for 6 hours.
Plates were removed from incubator and 100 uL/well PBS added. Plates were gently shaken for 10 minutes at room temperature and centrifuged (3000 rpm, 10 minutes) at room temperature. The plasma layer was removed and transferred to a separate 96-well plate and maintained at −80° C.
Plasma samples were measured for IP-10 levels using the IP-10 detection (U-plex or V-plex) plates (Cat #K151-UFK-4; Cat #K151-NVD-4; Meso-Scale Discovery, Inc.).

[3] = test system: CGAS; assay: CGAS whole blood cytokine release assay (384-well, BacMam stimulation, IP-10 by cytometric bead array); assay type: cell-based; settings: Homo sapiens, 6 h; read-out: hWB pXC50 (converted)
How it was run: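 Heparinised human donor whole blood mixed with serially diluted compound plus Null BacMam stimulus, incubated 6 h at 37° C, 5% CO2. Supernatant IP-10 quantified by cytometric bead array on flow cytometer (488 nm excitation, 585/40 nm emission); inhibition of IP-10 calculated.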

[4] = FaSSIF solubility (Fasted State Simulated Intestinal Fluid); assay type: physicochemical; settings: thermodynamic from solid, FaSSIF pH 6.5, 4 h equilibration at room temperature, dynamic range 1-1000 μg/mL
Method: 1 mL of FaSSIF buffer (3 mM sodium taurocholate, 0.75 mM lecithin in sodium phosphate buffer at pH 6.5) was added to manually weighed 1 mg of the solid compound in a 4 mL vial. […] The residual solid was removed by filtration. The supernatant solution was quantified by HPLC-UV using single point calibration of a known concentration of the compound in DMSO. The dynamic range of the assay was 1-1000 μg/mL.

| IC50 [1] [nM] | IC50 [3] [nM] | solubility at 4 h [4] [µg/mL] | Structure (SMILES) | hWB pXC50 [2] | IC50 [2] [nM] |
| --- | --- | --- | --- | --- | --- |
| 63.1 | – | – | COc1nc2c(-n3ccnc3)c(-c3nnc(C(F)(F)F)[nH]3)[nH]c2cc1Cl | < 4.5 and 5.0 | – |
| – | – | – | FC(F)(F)c1nnc(-c2[nH]c3c(Cl)c(Cl)ccc3c2-c2cn[nH]c2)[nH]1 [WO 2022/137085 Example 11] | 4.6 | > 31600 |
| 3.98 | 316 | 5 (≈ 14.8 µM) | Fc1cnc2nc(-c3nc(C(F)(F)F)n[nH]3)c(-c3cnc[nH]3)n2c1 [Example 2, 5-[6-fluoro-3-(1H-imidazol-5-yl)imidazo[1,2-a]pyrimidin-2-yl]-3-(trifluoromethyl)-1H-1,2,4-triazole] | – | 251 |
| – | – | – | Cn1c(-c2nnc(C(F)(F)F)[nH]2)c(-n2ccnc2)c2ccc(Cl)c(Cl)c21 [WO 2022/137085 Example 109] | <4.5, <4.5 | > 31600 |

Source: patent US12247033B2, “Triazole-substituted imidazo[1,2-a]pyrimidines as cGAS inhibitors” (GlaxoSmithKline Intellectual Property Development Limited, priority 2022, dated 2025)
